{
  "source": "patent US20080279952A1",
  "about": "“Controlled-Release Flupirtine Compositions, Compacts, Kits and Methods of Making and Use Thereof” (priority 2007, published 2008)",
  "origin": "cited, not measured here",
  "key": {"[1]": {"settings": "in vivo"}, "[2]": {"settings": "in vivo", "remark": "listed apart in the source"}},
  "data": [
    {"molecule": "CC(=O)Nc1ccc(NCc2ccc(F)cc2)nc1N", "note": "[2-amino-3-acetamino-6-(4-fluor)-benzyl-amino-pyridine]", "values": [
      {"measurement": "analgesic effect as percentage of that of flupirtine", "setting": "[1]", "value": "about 25%"}
    ]},
    {"molecule": "CCOC(=O)Nc1ccc(NCc2ccc(F)cc2)nc1N", "note": "[flupirtine]", "values": [
      {"measurement": "portion of the administered dose metabolized in the liver", "setting": "[2]", "value": "Approximately 75%"}
    ]}
  ]
}
